Tests used:
Assay type in all cases: functional
[1] = system: Mycobacterium tuberculosis; experiment: Antitubercular activity against multi drug-resistant Mycobacterium tuberculosis clinical isolate after 30 days by agar microdilution method
[2] = system: Mycobacterium tuberculosis; experiment: Antitubercular activity against RMF-resistant Mycobacterium tuberculosis clinical isolate1 after 30 days by agar microdilution method
[3] = system: Mycobacterium tuberculosis; experiment: Antitubercular activity against extensively drug-resistant Mycobacterium tuberculosis clinical isolate after 30 days by agar microdilution method
[4] = system: Mycobacterium tuberculosis; experiment: Antitubercular activity against RMF-resistant Mycobacterium tuberculosis clinical isolate2 after 30 days by agar microdilution method

Measured: MIC

OC(c1ccc(OCc2ccc(OCCN3CCCCC3)cc2)cc1)C1CC1 (centres undefined)
12.5 µg/mL: [1] | [2] | [3] | [4]

Source: ChEMBL document CHEMBL1629520, “Synthesis and optimization of antitubercular activities in a series of 4-(aryloxy)phenyl cyclopropyl methanols” (Eur J Med Chem, 2010)
